Assay results reported in patent US20030134848A1, “Substituted 1-aza-2-imino-heterocycles and their use as nicotinic acetylcholin receptors activators” (priority 2000, published 2003).
pKi: −log10 of the molar value.

Target: T1, α4β2 subtype of nicotinic acetylcholine receptors (Rattus norvegicus, UniProt P09483+P12390)
T1 construct: rat brain membrane obtained from whole homogenized brain; from tissue; host or cells: whole brain of Fischer-344 male rats, membrane fraction
Assay: Binding assay at α4β2 subtype of nicotinic acetylcholine receptors ([3H]-cytisine, rat brain membrane)
Settings: not given
Text: The methods for evaluating the binding capabilities of the compounds at nicotinic acetylcholine receptors are different by subtypes of receptors. The binding capabilities of the compounds at α4β2 nicotinic acetylcholine receptors are examined using rat brain membrane obtained from whole homogenized brain, and determining the inhibiting rate of the compounds against [^3H]-cytisine binding to said brain membrane. Furthermore, the binding capabilities of the compounds at α1β1γδ nicotinic acetylcholine receptors are examined using homogenized rat muscle, and determining the inhibiting rate of the compounds against [^3H]-α-bungarotoxin binding to said muscle homogenate.
The affinity of the compounds of the present invention to α4β2 subtype of nicotinic acetylcholine receptors was performed by the following method, which was modified method described by Pabreza L. A., Dhawan S. & Kellar K. J., Mol. Pharm., 39, 9-12 (1990), and by Anderson D. J. & Arneric S. P., Eur. J. Pharm., 253, 261-267 (1994).
(1) Preparation of Rat Brain Membrane Containing α4β2 Subtype of Nicotinic Acetylcholine Receptors
Fischer-344 strain male rats (body weight: 200-240 g; 9 weeks old) obtained from Charles River Japan were used. Rats were housed in the breeding cage controlled of the room temperature at 23±1° C., and the humidity of 55±5% for 1 to 4 weeks. Rats (3 to 4 rats per a cage) were housed with lights on for 12 hours daily (from 7:00 to 19:00), and allowed free access to food and water.
Preparation of rat brain membrane containing α4β2 subtype of nicotinic acetylcholine receptors was performed as follow. That is, rat brains were isolated just after sacrificed by decapitation, washed with ice-cooled saline solution and then frozen at −80° C. with liquid nitrogen and stored till using. After thawing the frozen brain, the brain was homogenized in 10 volumes of ice-cooled buffer solution (50 mM of Tris-HCl, 120 mM of NaCl, 5 mM of KCl, 1 mM of MgCl2, 2 mM of CaCl2; pH 7.4; 4° C.) using homogenizer (HG30, Hitachi Kohki Ltd.) for 30 seconds, and the homogenate were centrifuged under 1,000×G for 10 minutes at 4° C. The resulting supernatant was separated and the pellet was homogenized again with half volume of aforementioned prior buffer solution and centrifuged under the same conditions. Combined supernatant was further centrifuged under 40,000×G for 20 minutes at 4° C. The pellet was suspended in buffer solution and used for binding assays at receptors.
(2) Experiments of α4β2 Subtype of Nicotinic Acetylcholine Receptors Binding
Suspensions of membrane pellets containing 400-600 μg of protein were added to test tubes containing test compounds and [^3H]-cytisine (2 nM) in a final volume of 200 μl and incubated for 75 minutes in ice-cooled bath. The samples were isolated by vacuum filtration onto Whatman GF/B filters, which were prerinsed with 0.5% polyethylenimine just prior to sample filtration, using Brandel multi manifold cell harvester. The filters were rapidly washed with buffer solution (3×1 ml). The filters were counted in 3 ml of clearsol I (Nacalai Tesque Inc.).
The analyses of the experimental results were conducted by using the Accufit Competition Program (Beckman Ltd.).

T1 sequence (P09483 31-630): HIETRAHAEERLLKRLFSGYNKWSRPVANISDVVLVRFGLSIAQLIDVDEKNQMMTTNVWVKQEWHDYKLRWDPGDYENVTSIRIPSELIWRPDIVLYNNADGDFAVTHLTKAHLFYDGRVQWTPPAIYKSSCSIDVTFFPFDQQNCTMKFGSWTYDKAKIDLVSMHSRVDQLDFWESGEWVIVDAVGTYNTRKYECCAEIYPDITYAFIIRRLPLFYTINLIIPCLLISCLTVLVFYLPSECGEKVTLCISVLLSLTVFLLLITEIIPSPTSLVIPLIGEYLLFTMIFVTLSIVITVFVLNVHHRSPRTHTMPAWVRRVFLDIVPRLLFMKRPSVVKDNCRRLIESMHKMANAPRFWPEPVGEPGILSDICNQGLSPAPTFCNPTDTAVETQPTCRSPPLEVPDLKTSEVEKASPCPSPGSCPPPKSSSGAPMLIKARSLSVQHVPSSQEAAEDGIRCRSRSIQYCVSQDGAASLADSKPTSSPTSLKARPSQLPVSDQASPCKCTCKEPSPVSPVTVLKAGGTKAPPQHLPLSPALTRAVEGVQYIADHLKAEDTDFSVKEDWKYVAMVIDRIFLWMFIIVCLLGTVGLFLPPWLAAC
T1 sequence (P12390 25-500): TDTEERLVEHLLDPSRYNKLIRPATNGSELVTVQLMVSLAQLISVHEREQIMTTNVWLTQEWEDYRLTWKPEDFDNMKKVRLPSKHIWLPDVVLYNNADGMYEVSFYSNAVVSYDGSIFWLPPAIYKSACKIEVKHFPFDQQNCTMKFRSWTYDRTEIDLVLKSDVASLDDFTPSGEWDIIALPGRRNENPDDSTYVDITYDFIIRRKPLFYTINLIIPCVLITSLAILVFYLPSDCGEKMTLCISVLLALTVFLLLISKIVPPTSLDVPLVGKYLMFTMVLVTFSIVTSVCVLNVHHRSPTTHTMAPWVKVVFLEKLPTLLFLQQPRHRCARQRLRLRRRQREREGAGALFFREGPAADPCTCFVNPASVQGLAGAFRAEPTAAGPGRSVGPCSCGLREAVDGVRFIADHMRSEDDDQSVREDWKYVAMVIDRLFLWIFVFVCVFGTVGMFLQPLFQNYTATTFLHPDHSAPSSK

Going from Nc1nccn1CCc1cnc(Cl)s1 [Compound 23, 2-amino-1-[2-(2-chloro-5-thiazolyl)ethyl]imidazole] to Nc1nccn1CCc1cnc(Cl)c(Cl)c1 [Compound 13, 2-amino-1-[2-(5,6-dichloro-3-pyridyl)ethyl]-imidazole], the pKi rises from 8.07 to 8.51 (0.44 log units).

First: N=C1NCCCN1CCc1ccc(Cl)nc1 [Compound 12, 1-[2-(6-chloro-3-pyridyl)ethyl]-2-imino-1,2,3,4,5,6-hexahydro-pyrimidine]
Second: Nc1nccn1CCc1cncnc1 [Compound 29, 2-amino-1-[2-(5-pyrimidyl)ethyl]imidazole]
The pKi of the first is 0.63 log units higher: 8.85 for the first, 8.22 for the second.

Same assay, conditions: 1 μM of test compound; rat brain membrane; read-out: control % of [3H]-cytisine binding

Molecule Nc1nccn1CCc1cnccn1 [Compound 31, 2-amino-1-[2-(2-pyrazinyl)ethyl]imidazole] has a remaining activity at 1 µM of 75%.

Same assay, conditions: 10 μM of test compound; rat brain membrane; read-out: control % of [3H]-cytisine binding

Nc1nccn1CCc1cnccn1 [Compound 31, 2-amino-1-[2-(2-pyrazinyl)ethyl]imidazole] gave a remaining activity at 10 µM of 22%.

Same assay, conditions: rat brain membrane, [3H]-cytisine 2 nM; read-out: Affinities for receptors Ki α4β2

First: Nc1nccn1CCc1cccnc1 [Compound 14, 2-amino-1-[2-(3-pyridyl)ethyl]imidazole]
Second: Nc1nccn1CCc1ccnnc1 [Compound 34, 2-amino-1-[2-(4-pyridazinyl)ethyl]imidazole]
The pKi of the first is 1.29 log units higher: 8.46 for the first, 7.17 for the second. The first binds more tightly here.

Compared with Nc1nccn1CCc1cncc(Br)c1 [Compound 25, 2-amino-1-[2-(5-bromo-3-pyridyl)ethyl]imidazole], Cc1cncc(CCn2ccnc2N)c1 [Compound 27, 2-amino-1-[2-(5-methyl-3-pyridyl)ethyl]imidazole] is 1.02 log units lower in pKi: 8.70 for the first, 7.68 for the second.

Going from Cc1ccc(CCn2ccnc2N)cn1 [Compound 11, 2-amino-1-[2-(6-methyl-3-pyridyl)ethyl]imidazole] to Nc1nccn1CCc1cccnn1 [Compound 30, 2-amino-1-[2-(3-pyridazinyl)ethyl]imidazole], the pKi falls from 7.68 to 7.40 (0.28 log units).
